Assay results taken from US6410576B1, “Thiazolidine derivatives” (Santen Pharmaceutical Co., Ltd., priority 1998, dated 2002).
Counter-ions that a name gives are not always drawn.

Legend:
[1] = target: T1, chymase extracted from a dog cardiac tissue (Canis lupus familiaris, UniProt P21842); experiment: Chymase inhibitory effect (liberation of His-Leu from angiotensin I, fluorescence intensity); type: biochemical; conditions: angiotensin I substrate, 37° C. for one hour, pH 8 reaction buffer; read-out: IC50 (concentration required to inhibit the chymase enzymatic activity by 50%)
T1 construct: a heart is enucleated, and left ventricle is separated; from tissue; host or cells: beagle heart, left ventricle
T1 sequence (P21842 22-249): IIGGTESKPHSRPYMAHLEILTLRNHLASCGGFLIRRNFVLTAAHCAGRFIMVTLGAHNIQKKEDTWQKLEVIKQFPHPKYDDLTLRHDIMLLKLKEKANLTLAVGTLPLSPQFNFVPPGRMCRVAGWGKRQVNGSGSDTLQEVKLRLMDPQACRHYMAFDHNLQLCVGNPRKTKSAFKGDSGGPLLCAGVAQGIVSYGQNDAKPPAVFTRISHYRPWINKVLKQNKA
Excerpt: Chymase (enzyme) causes angiotensin I (substrate) to liberate a dipeptide (His-Leu) by the enzyme reaction with the substrate. It was reported that an enzymatic activity of chymase can be measured by measuring fluorescence intensity of the resulting peptide (Biochem. Biophys. Res. Com., 149 (3) 1186 (1987)). Since drugs having chymase inhibitory activities suppress this liberation of the dipeptide, the chymase inhibitory activities of the drugs can be measured by measuring fluorescence intensity. In the present pharmacological test, chymase inhibitory effects of the present compounds were studied by using chymase extracted from a dog cardiac tissue (J. Biol. Chem., 265 (36), 22348 (1990)).
1. A beagle is killed by drawing blood under Nembutal anesthesia, a heart is enucleated, and left ventricle is separated.
2. This left ventricle is finely minced, and the tissue weight is measured.
3. A 0.02 M Tris-HCl buffer (pH 7.4) is added to the tissue in an amount of 10 times by volume the tissue weight. This mixture is homogenized at 8,000 rpm for 20 seconds and then centrifuged at 4° C. and 21,000 rpm for 30 minutes, and the resulting supernatant is discarded.
(§1) 4. The same procedure as the above 3 is repeated twice for the residue. Then, a 0.02 M Tris-HCl buffer (pH 7.4) containing 1% Triton X-100 and 0.01 M potassium chloride is added to the residue in an amount of 10 times by volume the amount of the residue. This mixture is homogenized at 8,000 rpm for 20 seconds, then incubated at 4° C. for one hour and centrifuged at 21,000 rpm for 30 minutes, and the supernatant is discarded.
as §1, with “5. A” for “4. The same procedure as the above 3 is repeated twice for the residue. Then, a”, “0.5” for “0.01”
6. A 0.02 M Tris-HCl buffer (pH 7.4) containing 1% Triton X-100 and 2.0 M potassium chloride is added to the residue in an amount of 10 times the amount of the residue. This mixture is homogenized at 8,000 rpm for 20 seconds, then incubated at 4° C. for one hour and centrifuged at 21,000 rpm for 30 minutes. The obtained supernatant is used as a chymase enzyme solution.
Tris-HCl and disodium ethylenediaminetetraacetate are dissolved in water so that their concentrations are 92.3 mM and 12.0 mM respectively to prepare a reaction buffer adjusted to pH 8.
Angiotensin I is dissolved in water to prepare a 1.54 mM substrate solution.
A test compound is dissolved in dimethyl sulfoxide to prepare 3.0×10^−3 M, 3.0×10^−4 M, 3.0×10^−5 M and 3.0×10^−6 M test com solutions.
1. The reaction buffer (32.5 μl), the substrate solution (75.0 μl), the chymase enzyme solution (37.5 μl) and the test compound solution (5 μl) are mixed.
2. The obtained mixture is incubated at 37° C. for one hour.
3. To the mixture is added 15% trichloroacetic acid (225 μl), and the whole is centrifuged at 4° C. and 14,000 rpm for five minutes.
4. The supernatant is taken out. A 1% orthophthalaldehyde/methanol solution (165 μl) is added to 300 μl of this supernatant, and the whole is stirred and allowed to stand at room temperature for 10 minutes.
5. 1.5 M Hydrochloric acid (300 μl) is added to the resulting mixture, and the whole is stirred and centrifuged at 4° C. and 14,000 rpm for two minutes.
6. The supernatant is taken out and irradiated with light having a wavelength of 340 nm, and fluorescence intensity is measured at a wavelength of 455 nm.
The blank of this test is defined as follows. The same procedures as in the above 1 to 6 are repeated provided that a 20 mM Tris-HCl buffer (pH 7.4, 37.5 μl) containing 1% Triton X-100 and 2.0 M potassium chloride is used instead of the chymase enzyme solution (37.5 μl), and dimethyl sulfoxide (5 μl) is used instead of the test compound solution (5 μl) in the above 1. The obtained […] is the blank value. […]

melting point [°C]	IC50 [1] [nM]	Structure (SMILES)
	44	CC(C)OC(=O)C(=O)[C@H](Cc1ccccc1)NC(=O)[C@@H]1CSCN1C(=O)[C@@H](NC(=O)COc1ccccc1)C(C)C [Compound No. 2-20, Isopropyl (3S)-3-[(4R)-3-[(2S)-3-methyl-1-oxo-2-[[(phenoxylmethyl)carbonyl]amino]butyl]-1,3-thiazolidin-4-ylcarboxamido]-2-oxo-4-phenylbutyrate]
	56	COCC(=O)N[C@H](C(=O)N1CSC[C@H]1C(=O)N[C@@H](Cc1ccccc1)C(=O)C(=O)OC(C)C)C(C)C [Compound No. 2-19, Isopropyl (3S)-3-[(4R)-3-[(2S)-2-[(methoxymethyl)carbonyl]amino-3-methyl-1-oxobutyl]-1,3-thiazolidin-4-ylcarboxamido]-2-oxo-4-phenylbutyrate]
	31	CC(C)OC(=O)C(=O)[C@H](Cc1ccccc1)NC(=O)[C@@H]1CSCN1C(=O)[C@@H](NC(=O)N(C)Cc1ccccc1)C(C)C [Compound No. 2-25, Isopropyl (3S)-3-[(4R)-3-[(2S)-3-methyl-2-[[N-methyl-N-(phenylmethyl)amino]carbonyl]amino-1-oxobutyl]-1,3-thiazolidin-4-ylcarboxamido]-2-oxo-4-phenylbutyrate]
	47	CC(C)OC(=O)C(=O)[C@H](Cc1ccccc1)NC(=O)[C@@H]1CSCN1C(=O)[C@@H](NC(=O)OCc1ccccc1)C(C)C [Compound No. 2-1, Isopropyl (3S)-3-[(4R)-3-[(2S)-3-methyl-1-oxo-2-[[(phenylmethoxy)carbonyl]amino]butyl]-1,3-thiazolidin-4-ylcarboxamido]-2-oxo-4-phenylbutyrate]

The next lines start with the compound.

Structure (SMILES)	melting point [°C]	IC50 [1] [nM]
CC(C)OC(=O)C(=O)[C@H](Cc1ccccc1)NC(=O)[C@@H]1CSC(c2ccccc2)N1C(=O)[C@@H](NC(=O)N(C)CCN)C(C)C (mixture of isomers) (as salt: hydrochloride) [Compound No. 6-2, Isopropyl (3S)-3-[(2RS,4R)-3-[(2S)-2-[[N-(2-aminoethyl)-N-methylamino]carbonyl]amino]-3-methyl-1-oxobutyl]-2-phenyl-1,3-thiazolidin-4-ylcarboxamidol-2-oxo-4-phenylbutyrate hydrochloride]	90	
CC(C)OC(=O)C(=O)[C@H](Cc1ccccc1)NC(=O)[C@@H]1CSC(c2ccccc2)N1C(=O)[C@@H](NC(=O)N(C)CCN)C(C)C (mixture of isomers) [Compound No. 6-2, Isopropyl (3S)-3-[(2RS,4R)-3-[(2S)-2-[[N-(2-aminoethyl)-N-methylamino]carbonyl]amino]-3-methyl-1-oxobutyl]-2-phenyl-1,3-thiazolidin-4-ylcarboxamidol-2-oxo-4-phenylbutyrate hydrochloride]		57
CC(C)OC(=O)C(=O)[C@H](Cc1ccccc1)NC(=O)[C@@H]1CSCN1C(=O)[C@@H](NC(=O)N(C)CCNC(=O)OC(C)(C)C)C(C)C [Compound No. 2-26, Isopropyl (3S)-3-[(4R)-3-[(2S)-2-[[N-[2-[(tert-butoxycarbonyl)amino]ethyl]-N-methylamino]carbonyl]amino-3-methyl-1-oxobutyl]-1,3-thiazolidin-4-ylcarboxamido]-2-oxo-4-phenylbutyrate]		12
CC(C)OC(=O)C(=O)[C@H](Cc1ccccc1)NC(=O)[C@@H]1CSCN1C(=O)[C@@H](NC(=O)OC(C)(C)C)C(C)C [Compound No. 2-21, Isopropyl (3S)-3-[(4R)-3-[(2S)-2-(tert-butoxycarbonyl)amino-3-methyl-1-oxobutyl]-1,3-thiazolidin-4-ylcarboxamido]-2-oxo-4-phenylbutyrate]		26
CC(C)[C@H](NC(=O)OCc1ccccc1)C(=O)N1CSC[C@H]1C(=O)N[C@@H](Cc1ccccc1)C(=O)C(=O)OCc1ccccc1 [Compound No. 2-37, Phenylmethyl (3S)-3-[(4R)-3-[(2S)-3-methyl-1-oxo-2-[[(phenylmethoxy)carbonyl]amino]butyl]-1,3-thiazolidin-4-ylcarboxamido]-2-oxo-4-phenylbutyrate]		66
